# Laboratory results: patent publication US20070026090A1, “Treatment and prevention of inflammatory disease and mitochondrial dysfunction with high dose selenium” (priority 2003, published 2007)
# Entries after “also recorded” stand apart in the source; their conditions may differ.
# Key:
# [1] = mice, at 60 and 90 days; as selenocysteine; cited from earlier work
# [2] = tested on: Electron Transport Chain (complex 1); assay: Oxygen consumption of fresh colon tissue with rotenone; settings: healthy rat colon tissue; 20 μg/ml rotenone (FIG. 4)
# Protocol: Mitochondrial respiration activity in colon tissue: Mitochondrial respiration was measured by direct assessment of oxygen consumption of the tissue. Briefly, colons were removed, chilled on ice, and washed extensively with cold PBS. Colon tissue samples (5-10 mm in width, 100 mg) were incubated at ambient temperature in PBS supplemented with 5 mM glucose. Oxygen consumption was measured polarographically using a computerized Clark-type oxygen electrode. The addition of the Electron Transport Chain (complex 1) inhibitor rotenone was used to determine whether the majority of oxygen consumption measured in the colon samples was mitochondrial respiration-dependent.
# UCP2 = UCP2 transcription and expression (RTPCR, Western blot); format: cell-based, murine
# Protocol: (§1) Cell culture: Murine J774.2 macrophages (kindly provided by Prof. Dov Zipori from the Weizmann Institute of Science) were grown in RPMI medium supplemented with 10% (w/v) fetal calf serum, penicillin (100 U/ml), streptomycin (100 μg/ml) and 1× glutamine at 37° C. in a humidified atmosphere consisting of 95% air and 5% CO2. Experiments were performed on cells at 60% confluence.
# (§2) Western blots (Sp1, MnSOD, UCP2): Cells were grown in six-well tissue culture plates, treated with selenium for 72 h and activated with LPS and IFN-γ for 24 h. The wells were washed with PBS, scraped and centrifuged
# (§3) (5 min. 2000 RPM), and lysed by addition of boiling hot lysis buffer (1% SDS, 1 mM sodium ortho-vanadate, 10 mM Tris pH 7.4) to the pellets. Protein content was measured (BIO RAD protein assay kit) and equalized. Sample buffer (containg SDS) was added and the samples were boiled. The samples were subjected to SDS-PAGE followed by western blot analysis. Separated proteins were transferred electrophoretically from the gel to a nitrocellulose membrane (Amersham International plc, Buckinghamshire, ENGLAND). The membrane was blocked in TBS (0.15 M NaCl/10 mM Tris/HCl, pH7.4) containing 5% (v/v) skimmed milk (Blotto), then incubated over night with primary antibodies at RT (diluted 1/2000 in blotto). After being washed six times in TBST [TBS containing 0.05% (v/v) Tween 20], the membrane was incubated for 2 h at room temperature with secondary antibody (diluted 1/5000 in blotto). Immunoreactive bands were detected with ECL western blotting detection reagents (Amersham Pharmacia Biotech, Buckingammshire England) and developed on film (Fuji super RX, Dusseldorf, Germany). Primary antibodies for Sp1 and MnSOD were from BD Transduction Laboratories (Becton Dickenson and Co., San Jose, Calif. USA) and for UCP2 from Alpha Diagnostics LTD (Warszaw, Poland). Secondary antibodies were from Jackson ImmunoResearch (Jackson Labs, Bar Harbor, Maine, USA).
# Reverse transcriptase-PCR (RTPCR): Total RNA was prepared and isolated by the Tri-Reagent method according to the manufacturer's protocol (Sigma, St. Louis Mo., USA). Total RNA (1 μg) was converted into cDNA using Reverse-iT first strand synthesis kit (Abgene, UK). Amplification of MnSOD and UCP2 sequences was performed by incubating 10 ng equivalents of DNA with the following oligonucleotide primers:
# Left (sense), 5′-[…]-3′ (SEQ ID NO:7) corresponding to nucleotides 372 to 392 of mouse mRNA (GenBank Accession No. NM 011671).
# Right (antisense) 5′[…]-3′ (SEQ ID NO: 8) corresponding to nucleotides 826 to 846 of mouse mRNA (GenBank Accession No. NM 011671). The expected PCR product was 474 bp. Actual PCR product was approximately 474 bp, measured on 1.25% agarose gel in TAE containing ethidium bromide.
# (§4) PCR was performed with 28 cycles (25 cycles for GAPDH) of 30 seconds at 96° C., 30 seconds at 58° C. and 1 min at 72° C. RTPCR products were analyzed on 1.3% (w/v) agarose gels.
# [3] = Cell viability (PI exclusion, flow cytometry); format: cell-based, murine; settings: mouse, 10 μM during or after activation (FIGS. 14A, 14B); read-out: decrease in cell viability, activated and inactivated cells
# Protocol: Experiments were performed on cells at 60% confluence.
# Determination of cell viability: Cell-membrane integrity was detected by flow cytometer (FACSort, Becton Dickenson and Co., San Jose, Calif. USA) as a measurement of cell viability. For this assay, the nonpermeant DNA-intercalating dye propidium iodide (PI), which is excluded by viable cells, was used. Fluorescence settings were excitation at 488 nm and emission at 575 nm. Data were collected from at least 10,000 cells.
# [4] = Selenium incorporation into colon tissue (ICP-AES); format: in vivo, rat
# Protocol: Measurement of selenium incorporation into colon tissue: inductively coupled plasma (ICP) method: Colon tissue samples were prepared for analysis of selenium content by microwave-assisted digestion using an MLS 1200 mega microwave digestion unit [Milestone Sorisole (BG), Italy]. At the conclusion of the digestion period the vessels were allowed to cool down to room temperature and were uncapped. Liquid residues were taken up in water, transferred into 25-ml calibrated flasks and equilibrated to 25 ml volume with water. Analyses were conducted on portions of these solutions, versus multi-element selenium standards from Merck (Merck and Co, EMBD Biosciences, San Diego Calif.) in the same solvent. Selenium (Se) was determined by ICP-atomic emission spectrometry (AES) at 196.090 nm. An ICP-AES system, model “Spectroflame Modula E” from Spectro, Kleve, Germany was used with a cross-flow nebulizer. The power level was 1.2 kW, coolant flow 15 l/min, auxiliary flow 0.5 l/min and nebulizer flow 0.5 l/min. Observation height was 10 mm above the coil.
# [5] = tested on: myeloperoxidase (MPO) activity; assay: Tissue inflammation: myeloperoxidase activity in colon tissue; format: in vivo, rat; settings: 24 h after TNBS; 16 ppm sodium selenite in drinking water, three weeks (FIG. 3 column D)
# Protocol: Tissue inflammation-Myeloperoxidase activity: Colonic tissue samples (approximately 100-120 mg) were collected 4 cm proximal to the anus. Each tissue sample was homogenized in a solution containing 0.5% hexa-decyl-trimethyl-ammonium bromide (HTAB) (Sigma-Aldrich Corp, St. Louis, Mo.) buffer (0.5% HTAB in 50 mM phosphate buffer, pH 6.0). Tissue samples were minced in a test tube containing 1 ml of HTAB buffer on ice and homogenized with a Polytron tissue homogenizer (Brinkmann Instruments, Inc, Westbury N.Y., USA). The pooled homogenates and washes were sonicated in water for 20 seconds. After three cycles of freeze-thawing, the sonicated samples were centrifuged in cold for 15 min. at 40,000×g. Myeloperoxidase activity (MPO) was assayed in the supernatant as described by Krawisz (Krawisz et al., 1984) after addition of O-dianizidine-HCl (Sigma-Aldrich Corp, St Louis, Mo.) and 0.15% (v/v) H2O2 as a substrate for the MPO. The rate of change in absorbance was measured spectrophotometrically at 460 nm, and is expressed as the amount of enzyme necessary to produce a change in absorbance of 1.0 unit per minute (1 unit) per gram wet weight tissue.
# [6] = mice and rats; up to 0.8 mg/kg body weight selenium; cited from earlier work
# [7] = tested on: glutathione peroxidase (GPx); assay: GPx activity in macrophage cell extract; format: cell-based, murine; settings: 24 h; range 0.5-30 μM (FIG. 8B)
# Protocol: as §1
# GPx activity: GPx activity was determined by following the rate of NADPH oxidation at 340 nm in the presence of the substrates: 3 mM glutathione (GSH), 1.2 U glutathione reductase (GR) and 1.5% H2O2, using a microfluorometer plate reader (GENios, Tecan, Austria). The reaction contained 500 μl Tris reaction buffer (100 mM Tris Hcl, 300 mM Kcl, 5 mM EDTA, 1 mM NaN3, pH 7.0), substrates and 100 μl cell extract. Macrophages were treated with selenium for 24 h. Wells were washed twice with PBS, cells permeabilized, and scraped using 200 μl 0.2% Triton X-100. The reaction was recorded every minute for 25 minutes. Slopes were calculated and the results were adjusted according to the protein amount calculated with the Bradford reagent.
# MnSOD = MnSOD transcription and expression (RTPCR, Western blot); format: cell-based, murine; settings: LPS + INFγ activated; 24 hours; range 0.5-5 μM (FIG. 11)
# Protocol: as §1, §2
# as §3, with “Primary antibodies for Sp1 and MnSOD were from BD Transduction Laboratories (Becton Dickenson and Co., San Jose, Calif. USA) and for UCP2 from Alpha Diagnostics LTD (Warszaw, Poland). Secondary antibodies were from Jackson ImmunoResearch (Jackson Labs, Bar Harbor, Maine, USA).” left out
# Right (antisense) 5′[…]-3′ (SEQ ID NO: 6) corresponding to nucleotides 622 to 640 of mouse mRNA region (GenBank Accession No. NM 013671). […] Actual PCR product was approximately 570 bp, measured on 1.25% agarose gel in TAE containing ethidium bromide.
# as §4
# AOM-induced colon cancer = settings: up to 5.4 ppm in water; cited from earlier work
smiles,measurement,setting,value
N[C@@H](C[SeH])C(=O)O [selenocysteine],dietary supplementation at which toxicity was observed,[1],greater than 10 mg selenium per kg body weight per day
C=C(C)[C@H]1Cc2c(ccc3c2O[C@@H]2COc4cc(OC)c(OC)cc4[C@@H]2C3=O)O1 [rotenone],respiration (O2 consumption) of colon tissue,[2],strongly inhibited; also recorded: significantly reduced
O=[Se](O)O [sodium selenite],lowest concentration giving a significant decrease in UCP2 transcripts,UCP2; 24 and 72 hours (FIG. 10A),5 µM
same,reduction in detectable UCP2 protein,UCP2; 24 hours at 30 μM (FIG. 10B),greater than 50%
same,"lowest concentration effective in reducing UCP2 expression, activated macrophages","UCP2; LPS + INFγ activated, 24 hours, range 0.5-5 μM (FIG. 11)",1 µM
same,cytotoxicity at 10 μM,[3],≤ 60%
same,increase in colon tissue selenium levels compared with healthy rats,"[4]; colitis-induced rats, 24 h after TNBS, 16 ppm in water, three weeks (FIG. 1 C and D)",greater
same,colon tissue selenium vs untreated controls,"[4]; healthy and colitis rats (columns B and D vs A and C), 16 ppm in drinking water, three weeks",enhanced levels
same,protection against TNBS-induced inflammation (MPO activity),[5],> 80%
same,adverse effects of long term supplementation,[6],no observable adverse effects
same,concentration of maximum stimulation of GPx activity,[7],0.5 µM
same,"lowest concentration effective in reducing MnSOD expression, activated macrophages",MnSOD,1 µM
C[Se]CC[C@H](N)C(=O)O [selenomethionine],anti-cancer treatment effect,AOM-induced colon cancer,ineffective
